molecular target: EGFR WT (Homo sapiens (Human), UniProt P00533); assay: ErbB enzyme assay (CisBio HTRF-KinEASE-TK), EGFR WT; type: biochemical; conditions: ATP at Km (25 μM), 1 h incubation
Protocol: In vitro enzyme assays based on CisBio HTRF-KinEASE-TK technology were used to determine compound potencies. […]. Compounds were prepared as a three-fold serial dilution in DMSO and added to the assay to give the appropriate final concentration. After a 1 h incubation at ambient temperature, the reaction was quenched by adding 10 μL of 62.5 nM Sa-XL665 and 0.25×TK-Ab-Cryptate in HTRF detection buffer (all from CisBio, part of cat #62TKOPEC). After another 1 h incubation at ambient temperature, the extent of substrate phosphorylation was determined using a PerkinElmer EnVision multimode plate reader via time-resolved fluorescence dual wavelength detection. The percent of control (POC) was calculated using the ratio of emission at […] to the emission at 620 nm. One hundred POC was determined using DMSO only controls (no test compounds present) and zero POC was determined using pre-quenched controls reactions. A 4-parameter logistic equation was fit to the POC values as a function of the test compound concentration and the IC50 value was determined as the point where the curve crossed 50 POC.

Chain of EGFR WT (P00533 25-1210): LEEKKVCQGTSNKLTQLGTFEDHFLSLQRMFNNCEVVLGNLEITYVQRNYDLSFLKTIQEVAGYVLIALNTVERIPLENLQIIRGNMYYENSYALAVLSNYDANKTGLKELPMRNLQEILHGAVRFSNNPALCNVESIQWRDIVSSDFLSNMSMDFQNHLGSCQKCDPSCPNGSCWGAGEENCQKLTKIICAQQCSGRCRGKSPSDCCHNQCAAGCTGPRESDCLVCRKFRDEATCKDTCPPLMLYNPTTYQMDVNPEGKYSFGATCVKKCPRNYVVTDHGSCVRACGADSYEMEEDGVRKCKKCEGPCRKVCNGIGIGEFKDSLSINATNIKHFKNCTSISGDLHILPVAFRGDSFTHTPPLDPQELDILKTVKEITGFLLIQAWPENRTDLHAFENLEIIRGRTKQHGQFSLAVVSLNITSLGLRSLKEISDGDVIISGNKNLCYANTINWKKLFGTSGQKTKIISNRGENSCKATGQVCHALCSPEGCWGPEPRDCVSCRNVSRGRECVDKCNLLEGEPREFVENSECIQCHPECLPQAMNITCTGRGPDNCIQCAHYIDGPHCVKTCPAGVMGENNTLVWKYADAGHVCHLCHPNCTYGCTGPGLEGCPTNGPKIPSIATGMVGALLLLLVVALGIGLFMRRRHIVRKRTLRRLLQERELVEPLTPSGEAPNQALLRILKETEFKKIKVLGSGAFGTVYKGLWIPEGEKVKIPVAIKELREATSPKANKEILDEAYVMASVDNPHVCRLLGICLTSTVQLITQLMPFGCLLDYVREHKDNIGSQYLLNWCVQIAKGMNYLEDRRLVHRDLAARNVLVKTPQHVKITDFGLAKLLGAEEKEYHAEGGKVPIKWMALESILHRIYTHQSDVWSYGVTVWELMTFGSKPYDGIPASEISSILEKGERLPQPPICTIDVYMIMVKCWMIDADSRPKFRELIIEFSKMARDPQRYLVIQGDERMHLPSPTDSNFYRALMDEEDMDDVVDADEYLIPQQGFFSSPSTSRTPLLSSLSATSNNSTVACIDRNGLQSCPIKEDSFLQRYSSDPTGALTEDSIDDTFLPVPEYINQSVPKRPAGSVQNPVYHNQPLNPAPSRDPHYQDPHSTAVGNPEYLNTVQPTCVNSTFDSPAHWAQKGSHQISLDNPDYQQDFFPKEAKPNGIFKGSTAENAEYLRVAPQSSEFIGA

Compound | IC50 [nM]
C=CC(=O)N1CCN(c2nc3c(Nc4ccc(Oc5ccc6c(c5)nnn6C)c(C)c4)ncnc3cc2OC)CC1 [Compound 98, 1-(4-(7-methoxy-4-((3-methyl-4-((1-methyl-1H-benzo[d][1,2,3]triazol-5-yl)oxy)phenyl)amino)pyrido[3,2-d]pyrimidin-6-yl)piperazin-1-yl)prop-2-en-1-one] | < 50
C=CC(=O)N1CCN(c2ncc3ncnc(Nc4ccc(Oc5ccn6ncnc6c5)c(C)c4)c3c2F)CC1 [Compound 100, 1-(4-(4-((4-([1,2,4]triazolo[1,5-a]pyridin-7-yloxy)-3-methylphenyl)amino)-5-fluoropyrido[3,4-d]pyrimidin-6-yl)piperazin-1-yl)prop-2-en-1-one] | 500 to 1000
C=CC(=O)N1CCN(c2ncc3ncnc(Nc4ccc(Oc5ccc6c(c5)nnn6C)c(C)c4)c3n2)C[C@@H]1COC [Compound 116, (R)-1-(2-(methoxymethyl)-4-(8-((3-methyl-4-((1-methyl-1H-benzo[d][1,2,3]triazol-5-yl)oxy)phenyl)amino)pyrimido[5,4-d]pyrimidin-2-y1)piperazin-1-yl)prop-2-en-1-one] | 100 to 500
C=CC(=O)N1CCN(c2ncc3ncnc(Nc4ccc(Oc5ccc6c(c5)nnn6C)c(C)c4)c3n2)C[C@H]1COC [Compound 120, (S)-1-(2-(methoxymethyl)-4-(8-((3-methyl-4-((1-methyl-1H-benzo[d][1,2,3]triazol-5-yl)oxy)phenyl)amino)pyrimido[5,4-d]pyrimidin-2-y1)piperazin-1-yl)prop-2-en-1-one] | 50 to 100
C=CC(=O)N1CCN(c2ncc3ncnc(Nc4ccc(Oc5ccc6c(c5)nnn6C)c(C)c4)c3n2)C[C@H]1C(C)C [Compound 121, (R)-1-(2-isopropyl-4-(8-((3-methyl-4-((1-methyl-1H-benzo[d][1,2,3]triazol-5-yl)oxy)phenyl)amino)pyrimido[5,4-d]pyrimidin-2-yl)piperazin-1-yl)prop-2-en-1-one] | ≥ 1000
C=CC(=O)N1CCN(c2ncc3ncnc(Nc4ccc(Oc5ccc6c(c5)nnn6C)c(C)c4)c3n2)C[C@@H]1C(C)C [Compound 122, (S)-1-(2-isopropyl-4-(8-((3-methyl-4-((1-methyl-1H-benzo[d][1,2,3]triazol-5-yl)oxy)phenyl)amino)pyrimido[5,4-d]pyrimidin-2-yl)piperazin-1-y1)prop-2-en-1-one] | ≥ 1000
C=CC(=O)N[C@@H]1CCCN(c2ncc3ncnc(Nc4ccc(Oc5ccc6c(c5)nnn6C)c(C)c4)c3n2)C1 [Compound 125, (R)-N-(1-(8-((3-methyl-4-((1-methyl-1H-benzo[d][1,2,3]triazol-5-yl)oxy)phenyl)amino)pyrimido [5,4-d]pyrimidin-2-y1)piperidin-3-yl)acrylamide] | 100 to 500
C=CC(=O)N[C@H]1CCCN(c2ncc3ncnc(Nc4ccc(Oc5ccc6c(c5)nnn6C)c(C)c4)c3n2)C1 [Compound 126, (S)-N-(1-(8-((3-methyl-4-((1-methyl-1H-benzo[d][1,2,3]triazol-5-yl)oxy)phenyl)amino)pyrimido [5,4-d]pyrimidin-2-yl)piperidin-3-yl)acrylamide] | 500 to 1000
C=CC(=O)N1CC[C@@H](N(C)c2ncc3ncnc(Nc4ccc(Oc5ccc6c(c5)nnn6C)c(C)c4)c3n2)C1 [Compound 128, (R)-1-(3-(methyl(8-((3-methyl-4-((1-methyl-1H-benzo[d][1,2,3]triazol-5-yl)oxy)phenyl)amino)pyrimido[5,4-d]pyrimidin-2-yl)amino)pyrrolidin-1-yl)prop-2-en-1-one] | 100 to 500
C=CC(=O)N1CC[C@H](N(C)c2ncc3ncnc(Nc4ccc(Oc5ccc6c(c5)nnn6C)c(C)c4)c3n2)C1 [Compound 131, (S)-1-(3-(methyl(8-((3-methyl-4-((1-methyl-1H-benzo[d][1,2,3]triazol-5-yl)oxy)phenyl)amino)pyrimido[5,4-d]pyrimidin-2-yl)amino)pyrrolidin-1-yl)prop-2-en-1-one] | < 50
C=CC(=O)NC1CC(N(C)c2ncc3ncnc(Nc4ccc(Oc5ccc6c(c5)nnn6C)c(C)c4)c3n2)C1 (stereo not shown) [Compound 142, N-(3-(methyl(8-((3-methyl-4-((1-methyl-1H-benzo[d][1,2,3]triazol-5-yl)oxy)phenyl)amino)pyrimido [5,4-d]pyrimidin-2-yl)amino)cyclobutyl)acrylamide] | 100 to 500

Other lines, results leading:

IC50 [nM] | Compound
< 50 | C=CC(=O)N1CCN(c2nc3c(Nc4ccc(Oc5cc(F)c6c(c5)nnn6C)c(C)c4F)ncnc3cc2OC)CC1 [Compound 99, 1-(4-(4-((2-fluoro-4-((7-fluoro-1-methyl-1H-benzo[d][1,2,3]triazol-5-yl)oxy)-3-methylphenyl)amino)-7-methoxypyrido[3,2-d]pyrimidin-6-yl)piperazin-1-yl)prop-2-en-1-one]
< 50 | C=CC(=O)N1CCC(Oc2ncc3ncnc(Nc4ccc(Oc5cc(F)c6c(c5)nnn6C)c(C)c4)c3n2)CC1 [Compound 106, 1-(4-((8-((4-((7-fluoro-1-methyl-1H-benzo[d][1,2,3]triazol-5-yl)oxy)-3-methylphenyl)amino)pyrimido[5,4-d]pyrimidin-2-yl)oxy)piperidin-1-yl)prop-2-en-1-one]
< 50 | C=CC(=O)N1CCN(c2ncc3ncnc(Nc4ccc(Oc5cc(F)c6c(c5)ncn6C)c(C)c4F)c3n2)CC1 [Compound 111, 1-(4-(8-((2-fluoro-4-((7-fluoro-1-methyl-1H-benzo[d]imidazol-5-yl)oxy)-3-methylphenyl)amino)pyrimido[5,4-d]pyrimidin-2-yl)piperazin-1-y1)prop-2-en-1-one]
< 50 | C=CC(=O)N1CCN(c2ncc3ncnc(Nc4ccc(Oc5cc(OC)c6c(c5)nnn6C)c(C)c4)c3n2)CC1 [Compound 113, 1-(4-(8-((4-((7-methoxy-1-methyl-1H-benzo[d][1,2,3]triazol-5-yl)oxy)-3-methylphenyl)amino)pyrimido[5,4-d]pyrimidin-2-yl)piperazin-1-yl)prop-2-en-1-one]
< 50 | C=CC(=O)N1CCN(c2ncc3ncnc(Nc4ccc(Oc5cnc6c(c5)ncn6C)c(C)c4F)c3n2)CC1 [Compound 118, 1-(4-(8-((2-fluoro-3-methyl-4-((3-methyl-3H-imidazo[4,5-b]pyridin-6-yl)oxy)phenyl)amino)pyrimido [5,4-d]pyrimidin-2-y1)piperazin-1-yl)prop-2-en-1-one]
< 50 | C=CC(=O)N1CCN(c2ncc3ncnc(Nc4ccc(Oc5cc(C)c6c(c5)nnn6C)c(C)c4)c3n2)CC1 [Compound 130, 1-(4-(8-((4-((1,7-dimethyl-1H-benzo[d][1,2,3]triazol-5-yl)oxy)-3-methylphenyl)amino)pyrimido[5,4-d]pyrimidin-2-yl)piperazin-1-yl)prop-2-en-1-one]
100 to 500 | C=CC(=O)N1CCN(c2ncc3ncnc(Nc4ccc(Oc5cc6nnn(C)c6cc5C)c(C)c4)c3n2)CC1 [Compound 136, 1-(4-(8-((4-((1,6-dimethyl-1H-benzo[d][1,2,3]triazol-5-y1)oxy)-3-methylphenyl)amino)pyrimido[5,4-d]pyrimidin-2-yl)piperazin-1-yl)prop-2-en-1-one]
100 to 500 | C=CC(=O)N1CCN(c2ncc3ncnc(Nc4ccc(Oc5cc6nnn(C)c6c(C)c5F)c(C)c4)c3n2)CC1 [Compound 141, 1-(4-(8-((4-((6-fluoro-1,7-dimethyl-1H-benzo[d][1,2,3]triazol-5-yl)oxy)-3-methylphenyl)amino)pyrimido[5,4-d]pyrimidin-2-yl)piperazin-1-yl)prop-2-en-1-one]
